# Assay results reported in ChEMBL document CHEMBL4184146, “Interrogating the Roles of Post-Translational Modifications of Non-Histone Proteins” (J Med Chem, 2018).
# Legend:
# [1] = Inhibition of SCF (SKP2) complex (unknown origin) expressed in baculovirus infected Sf9 cells assessed as decrease in phospho-p27 Kip1 ubiquitination preincubated for 10 to 45 mins followed by phospho-p27 Kip1 addition measured after 1 to 3 hrs by immunoblot method; set-up: species or system Homo sapiens
# [2] = molecular target: Protein farnesyltransferase (Homo sapiens, UniProt P49354+P49356); assay: Inhibition of FTase isolated from human Burkitt's lymphoma cells assessed as decrease in transfer of [3H]farnesyl from [3H]farnesyl PPi to H-Ras-CVLS
# [3] = molecular target: SUMO-activating enzyme (Homo sapiens, UniProt Q9UBT2); assay: Inhibition of SAE (unknown origin) assessed as decrease in formation of E2-UBL thioester reaction product; assay type: protein-complex assay
# Chain of SUMO-activating enzyme (Q9UBE0 whole entry): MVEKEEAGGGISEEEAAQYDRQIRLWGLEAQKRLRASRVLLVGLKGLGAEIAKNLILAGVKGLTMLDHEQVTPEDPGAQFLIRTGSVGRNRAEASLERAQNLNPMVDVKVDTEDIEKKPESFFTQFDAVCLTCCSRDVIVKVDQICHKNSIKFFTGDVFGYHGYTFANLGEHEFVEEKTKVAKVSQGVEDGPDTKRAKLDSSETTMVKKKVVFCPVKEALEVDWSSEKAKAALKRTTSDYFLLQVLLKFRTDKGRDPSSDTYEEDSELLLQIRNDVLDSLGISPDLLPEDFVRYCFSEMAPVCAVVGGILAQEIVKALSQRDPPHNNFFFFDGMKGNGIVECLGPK
# Chain of SUMO-activating enzyme (Q9UBT2 whole entry): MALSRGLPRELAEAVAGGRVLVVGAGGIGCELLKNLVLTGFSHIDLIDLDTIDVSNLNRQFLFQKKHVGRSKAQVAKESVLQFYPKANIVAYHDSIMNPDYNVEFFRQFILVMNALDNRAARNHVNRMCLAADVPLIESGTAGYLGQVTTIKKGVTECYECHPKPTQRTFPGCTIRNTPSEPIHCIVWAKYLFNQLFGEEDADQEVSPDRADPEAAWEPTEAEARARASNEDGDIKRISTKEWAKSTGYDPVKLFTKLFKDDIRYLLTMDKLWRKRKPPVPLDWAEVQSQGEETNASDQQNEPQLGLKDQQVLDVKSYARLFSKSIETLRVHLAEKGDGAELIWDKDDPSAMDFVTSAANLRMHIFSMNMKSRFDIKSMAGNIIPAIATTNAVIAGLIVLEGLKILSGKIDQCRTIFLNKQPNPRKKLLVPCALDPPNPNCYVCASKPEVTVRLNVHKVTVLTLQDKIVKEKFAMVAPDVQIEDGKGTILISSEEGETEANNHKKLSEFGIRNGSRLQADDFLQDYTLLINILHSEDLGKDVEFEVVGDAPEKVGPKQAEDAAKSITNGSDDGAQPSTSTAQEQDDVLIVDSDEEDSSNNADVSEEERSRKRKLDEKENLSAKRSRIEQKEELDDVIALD
# [4] = molecular target: T1, Ubiquitin-like modifier-activating enzyme ATG7 (Homo sapiens, UniProt O95352); assay: Inhibition of ATG7 (unknown origin) assessed as decrease in formation of E2-UBL thioester reaction product
# T1 sequence (O95352 whole entry): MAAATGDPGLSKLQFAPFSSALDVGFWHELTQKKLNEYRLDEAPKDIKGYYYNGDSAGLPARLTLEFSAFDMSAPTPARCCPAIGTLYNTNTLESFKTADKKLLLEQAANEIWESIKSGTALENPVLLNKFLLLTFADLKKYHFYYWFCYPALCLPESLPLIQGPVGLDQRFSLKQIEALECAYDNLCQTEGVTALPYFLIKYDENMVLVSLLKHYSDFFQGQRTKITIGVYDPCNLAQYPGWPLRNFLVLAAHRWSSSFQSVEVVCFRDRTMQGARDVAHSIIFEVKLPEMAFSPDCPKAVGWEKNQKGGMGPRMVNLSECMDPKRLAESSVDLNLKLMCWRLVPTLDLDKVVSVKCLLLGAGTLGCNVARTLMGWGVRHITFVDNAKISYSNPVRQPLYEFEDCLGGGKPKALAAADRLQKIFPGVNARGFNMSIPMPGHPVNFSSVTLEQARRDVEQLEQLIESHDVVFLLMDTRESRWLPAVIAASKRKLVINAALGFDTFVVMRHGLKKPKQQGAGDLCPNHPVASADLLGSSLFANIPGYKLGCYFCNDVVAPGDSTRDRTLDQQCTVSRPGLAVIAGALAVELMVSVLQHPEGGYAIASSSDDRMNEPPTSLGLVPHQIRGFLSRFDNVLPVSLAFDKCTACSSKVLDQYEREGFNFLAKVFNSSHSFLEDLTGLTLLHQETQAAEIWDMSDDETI
# [5] = Inhibition of UAE (unknown origin) assessed as decrease in formation of E2-UBL thioester reaction product; set-up: species or system Homo sapiens
# [6] = molecular target: T2, Ubiquitin-like modifier-activating enzyme 6 (Homo sapiens, UniProt A0AVT1); assay: Inhibition of UBA6 (unknown origin) assessed as decrease in formation of E2-UBL thioester reaction product
# T2 sequence (A0AVT1 whole entry): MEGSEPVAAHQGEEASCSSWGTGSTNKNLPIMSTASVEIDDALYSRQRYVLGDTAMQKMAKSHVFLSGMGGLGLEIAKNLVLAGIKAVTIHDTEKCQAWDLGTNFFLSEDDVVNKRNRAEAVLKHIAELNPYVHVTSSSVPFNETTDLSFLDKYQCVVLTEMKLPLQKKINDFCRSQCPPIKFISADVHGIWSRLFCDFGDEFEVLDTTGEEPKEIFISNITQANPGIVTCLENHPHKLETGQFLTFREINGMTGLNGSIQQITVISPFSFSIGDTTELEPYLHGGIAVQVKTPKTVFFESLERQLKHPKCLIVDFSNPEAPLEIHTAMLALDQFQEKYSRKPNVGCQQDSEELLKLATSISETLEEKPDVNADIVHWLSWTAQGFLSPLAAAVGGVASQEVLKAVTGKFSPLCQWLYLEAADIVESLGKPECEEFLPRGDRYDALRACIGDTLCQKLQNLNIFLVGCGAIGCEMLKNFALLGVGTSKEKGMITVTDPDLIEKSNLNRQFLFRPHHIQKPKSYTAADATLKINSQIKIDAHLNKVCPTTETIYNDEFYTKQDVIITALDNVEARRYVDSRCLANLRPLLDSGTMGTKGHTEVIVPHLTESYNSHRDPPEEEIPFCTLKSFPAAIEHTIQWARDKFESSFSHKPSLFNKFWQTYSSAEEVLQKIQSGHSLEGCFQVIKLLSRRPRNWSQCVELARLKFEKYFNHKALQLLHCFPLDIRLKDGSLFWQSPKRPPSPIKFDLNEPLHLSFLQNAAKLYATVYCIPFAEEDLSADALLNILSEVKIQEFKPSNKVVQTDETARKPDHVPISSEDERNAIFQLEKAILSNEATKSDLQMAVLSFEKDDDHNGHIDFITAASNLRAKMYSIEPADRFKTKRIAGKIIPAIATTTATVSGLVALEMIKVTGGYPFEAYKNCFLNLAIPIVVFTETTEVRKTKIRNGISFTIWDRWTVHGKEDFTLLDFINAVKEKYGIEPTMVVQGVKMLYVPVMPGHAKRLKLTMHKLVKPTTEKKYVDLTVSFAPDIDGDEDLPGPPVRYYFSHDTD
# [7] = molecular target: T3, Protein O-GlcNAcase (Rattus norvegicus, UniProt Q8VIJ5); assay: Inhibition of O-GlcNAcase in rat PC12 cells assessed as induction of OGlcNAcylation after 24 hrs by Western blot method; assay type: cell-based
# T3 sequence (Q8VIJ5 whole entry): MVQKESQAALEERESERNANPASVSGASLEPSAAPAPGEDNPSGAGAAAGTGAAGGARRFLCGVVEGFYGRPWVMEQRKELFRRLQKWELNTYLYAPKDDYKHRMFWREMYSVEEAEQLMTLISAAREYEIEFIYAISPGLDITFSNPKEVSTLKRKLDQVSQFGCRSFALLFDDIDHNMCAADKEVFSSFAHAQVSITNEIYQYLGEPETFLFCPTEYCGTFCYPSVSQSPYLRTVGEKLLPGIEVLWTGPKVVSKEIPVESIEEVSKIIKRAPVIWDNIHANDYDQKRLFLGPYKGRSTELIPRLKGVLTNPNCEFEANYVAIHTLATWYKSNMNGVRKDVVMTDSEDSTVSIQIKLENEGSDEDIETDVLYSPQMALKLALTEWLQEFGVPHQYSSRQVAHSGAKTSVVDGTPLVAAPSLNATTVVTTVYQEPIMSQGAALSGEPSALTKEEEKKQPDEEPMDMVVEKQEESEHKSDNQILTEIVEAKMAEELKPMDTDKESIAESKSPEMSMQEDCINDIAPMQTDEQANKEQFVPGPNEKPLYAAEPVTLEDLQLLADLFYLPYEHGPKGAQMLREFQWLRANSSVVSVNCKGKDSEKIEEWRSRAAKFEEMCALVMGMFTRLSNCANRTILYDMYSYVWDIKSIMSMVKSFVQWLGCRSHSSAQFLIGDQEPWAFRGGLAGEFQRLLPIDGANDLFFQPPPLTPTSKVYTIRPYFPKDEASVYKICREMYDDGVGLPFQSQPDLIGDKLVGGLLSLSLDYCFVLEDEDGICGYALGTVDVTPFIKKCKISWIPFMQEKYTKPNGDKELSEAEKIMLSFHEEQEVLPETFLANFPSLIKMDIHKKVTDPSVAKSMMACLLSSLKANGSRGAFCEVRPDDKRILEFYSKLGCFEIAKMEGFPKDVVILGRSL
# [8] = molecular target: Geranylgeranyl transferase type I (Homo sapiens, UniProt P49354+P53609); assay: Inhibition of GGTase1 isolated from Kirsten virus-transformed human osteosarcoma cells using biotin-YRASNRSCAIL peptide as substrate after 120 mins in presence of [ 1-[ 3 H](n)]geranylgeranylpyrophosphate by scintillation proximity assay
# [9] = molecular target: c-Jun N-terminal kinase, JNK (Homo sapiens, UniProt P45983+P53779+P45984); assay: Inhibition of JNK (unknown origin); assay type: protein assay
# [10] = molecular target: Serine/threonine-protein kinase B-raf (Homo sapiens, UniProt P15056); assay: Inhibition of BRAF (unknown origin) using MEK1 K97R mutant as substrate preincubated for 60 to 120 mins followed by substrate addition measured after 2 hrs by TR-FRET assay
# Chain of Serine/threonine-protein kinase B-raf (P15056 whole entry): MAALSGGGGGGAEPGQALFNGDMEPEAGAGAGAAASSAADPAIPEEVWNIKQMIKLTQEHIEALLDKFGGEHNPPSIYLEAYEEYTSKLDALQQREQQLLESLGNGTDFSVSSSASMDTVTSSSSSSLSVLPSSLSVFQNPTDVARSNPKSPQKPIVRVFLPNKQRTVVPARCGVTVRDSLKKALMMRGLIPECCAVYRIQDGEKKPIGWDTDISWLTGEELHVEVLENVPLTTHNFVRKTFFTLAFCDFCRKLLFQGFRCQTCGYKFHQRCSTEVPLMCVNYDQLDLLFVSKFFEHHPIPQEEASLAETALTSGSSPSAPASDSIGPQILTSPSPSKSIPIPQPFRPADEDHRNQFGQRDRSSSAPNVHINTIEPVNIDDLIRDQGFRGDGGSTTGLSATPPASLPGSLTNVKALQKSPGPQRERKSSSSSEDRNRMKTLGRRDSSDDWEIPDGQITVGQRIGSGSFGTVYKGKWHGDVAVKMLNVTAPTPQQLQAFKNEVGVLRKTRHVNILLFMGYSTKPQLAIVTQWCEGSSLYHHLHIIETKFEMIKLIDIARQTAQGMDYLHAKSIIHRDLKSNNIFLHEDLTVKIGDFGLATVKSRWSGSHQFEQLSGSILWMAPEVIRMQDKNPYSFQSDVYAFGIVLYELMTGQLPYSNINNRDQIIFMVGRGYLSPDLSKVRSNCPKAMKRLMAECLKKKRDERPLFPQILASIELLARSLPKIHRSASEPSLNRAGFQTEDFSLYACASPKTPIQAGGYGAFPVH
# [11] = molecular target: Histone acetyltransferase p300 (Homo sapiens, UniProt Q09472); assay: Inhibition of full length His6-tagged recombinant p300 (unknown origin) expressed in baculovirus infected Sf21 cells using human histone as substrate preincubated for 10 mins followed by [3H]acetyl-CoA addition measured after 10 mins by liquid scintillation counting method
# Chain of Histone acetyltransferase p300 (Q09472 whole entry): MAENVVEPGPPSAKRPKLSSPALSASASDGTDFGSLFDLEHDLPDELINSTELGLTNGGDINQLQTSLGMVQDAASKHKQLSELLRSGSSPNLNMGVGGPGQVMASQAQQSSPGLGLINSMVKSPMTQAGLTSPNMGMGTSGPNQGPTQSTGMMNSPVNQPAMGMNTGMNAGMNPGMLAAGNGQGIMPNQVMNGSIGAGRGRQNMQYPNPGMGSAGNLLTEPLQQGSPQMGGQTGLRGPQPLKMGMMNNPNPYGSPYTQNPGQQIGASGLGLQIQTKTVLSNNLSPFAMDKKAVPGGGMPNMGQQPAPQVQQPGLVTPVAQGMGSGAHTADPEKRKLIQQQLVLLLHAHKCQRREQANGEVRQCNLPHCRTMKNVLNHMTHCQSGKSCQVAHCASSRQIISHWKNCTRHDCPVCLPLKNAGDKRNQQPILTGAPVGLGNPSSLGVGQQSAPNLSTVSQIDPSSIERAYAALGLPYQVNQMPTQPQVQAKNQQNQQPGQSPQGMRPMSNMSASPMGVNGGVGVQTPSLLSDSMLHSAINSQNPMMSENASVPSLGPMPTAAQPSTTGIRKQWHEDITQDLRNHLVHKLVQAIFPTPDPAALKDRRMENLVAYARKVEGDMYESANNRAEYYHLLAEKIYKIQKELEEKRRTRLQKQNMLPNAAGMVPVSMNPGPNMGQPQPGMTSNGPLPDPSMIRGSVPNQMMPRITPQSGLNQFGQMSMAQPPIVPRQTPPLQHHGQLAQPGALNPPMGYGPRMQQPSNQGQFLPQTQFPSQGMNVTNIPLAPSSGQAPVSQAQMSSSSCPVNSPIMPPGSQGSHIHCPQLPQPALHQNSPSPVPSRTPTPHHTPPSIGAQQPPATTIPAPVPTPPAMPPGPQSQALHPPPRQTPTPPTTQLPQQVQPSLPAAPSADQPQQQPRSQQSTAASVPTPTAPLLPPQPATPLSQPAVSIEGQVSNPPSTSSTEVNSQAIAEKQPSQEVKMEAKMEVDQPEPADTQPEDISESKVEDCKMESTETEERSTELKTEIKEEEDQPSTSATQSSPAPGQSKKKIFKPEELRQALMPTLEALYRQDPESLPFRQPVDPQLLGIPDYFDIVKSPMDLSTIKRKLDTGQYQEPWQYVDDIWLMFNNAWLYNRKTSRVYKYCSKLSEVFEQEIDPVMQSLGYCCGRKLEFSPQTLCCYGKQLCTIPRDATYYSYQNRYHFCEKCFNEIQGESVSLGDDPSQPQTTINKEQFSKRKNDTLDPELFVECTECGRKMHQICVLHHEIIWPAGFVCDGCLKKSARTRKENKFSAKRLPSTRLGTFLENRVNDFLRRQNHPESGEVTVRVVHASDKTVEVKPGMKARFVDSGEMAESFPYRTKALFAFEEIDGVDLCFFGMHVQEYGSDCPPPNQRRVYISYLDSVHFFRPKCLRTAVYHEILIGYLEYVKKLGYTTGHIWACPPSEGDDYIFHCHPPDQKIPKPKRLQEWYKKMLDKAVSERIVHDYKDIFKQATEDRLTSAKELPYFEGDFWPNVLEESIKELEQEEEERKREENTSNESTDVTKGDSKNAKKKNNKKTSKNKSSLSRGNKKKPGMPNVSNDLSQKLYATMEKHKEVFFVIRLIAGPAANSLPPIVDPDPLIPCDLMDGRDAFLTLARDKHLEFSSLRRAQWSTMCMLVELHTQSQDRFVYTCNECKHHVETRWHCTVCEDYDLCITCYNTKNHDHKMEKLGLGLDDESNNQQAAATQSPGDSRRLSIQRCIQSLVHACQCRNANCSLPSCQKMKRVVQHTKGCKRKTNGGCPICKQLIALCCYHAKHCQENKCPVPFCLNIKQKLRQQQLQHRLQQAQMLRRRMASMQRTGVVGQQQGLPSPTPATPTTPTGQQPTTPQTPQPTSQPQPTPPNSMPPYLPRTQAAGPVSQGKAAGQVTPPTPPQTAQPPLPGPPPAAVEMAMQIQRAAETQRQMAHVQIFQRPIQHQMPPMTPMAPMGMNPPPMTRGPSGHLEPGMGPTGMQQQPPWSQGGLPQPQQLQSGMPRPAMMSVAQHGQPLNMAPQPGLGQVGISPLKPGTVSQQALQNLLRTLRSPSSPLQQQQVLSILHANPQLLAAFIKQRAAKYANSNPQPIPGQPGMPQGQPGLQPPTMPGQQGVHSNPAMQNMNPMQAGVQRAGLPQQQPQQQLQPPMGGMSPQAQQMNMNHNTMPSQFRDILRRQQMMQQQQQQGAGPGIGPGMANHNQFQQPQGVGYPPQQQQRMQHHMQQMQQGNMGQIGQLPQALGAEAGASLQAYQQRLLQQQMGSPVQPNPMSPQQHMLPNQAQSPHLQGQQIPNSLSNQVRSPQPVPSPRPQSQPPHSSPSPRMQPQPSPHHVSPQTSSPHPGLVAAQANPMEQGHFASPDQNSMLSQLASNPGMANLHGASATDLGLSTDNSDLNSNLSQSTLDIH
# [12] = molecular target: T4, Sharpin/RBCK1/RNF31 (Homo sapiens, UniProt Q96EP0+Q9BYM8+Q9H0F6); assay: Inhibition of petit-LUBAC (unknown origin)-mediated ubiquitylation expressed in Escherichia coli BL21 after 2 hrs in presence of E1, UbcH5c, E3 and ubiquitin
# T4 sequence (Q9H0F6 whole entry): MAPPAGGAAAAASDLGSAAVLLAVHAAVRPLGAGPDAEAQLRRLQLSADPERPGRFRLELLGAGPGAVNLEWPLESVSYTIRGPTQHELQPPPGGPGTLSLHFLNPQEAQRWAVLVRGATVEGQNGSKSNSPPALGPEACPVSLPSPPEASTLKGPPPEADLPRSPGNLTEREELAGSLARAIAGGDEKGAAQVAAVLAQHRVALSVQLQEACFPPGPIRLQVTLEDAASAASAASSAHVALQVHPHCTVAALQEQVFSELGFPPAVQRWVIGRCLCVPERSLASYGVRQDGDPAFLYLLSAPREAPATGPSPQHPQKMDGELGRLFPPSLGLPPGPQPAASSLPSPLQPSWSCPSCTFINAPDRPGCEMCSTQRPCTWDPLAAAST
# T4 sequence (Q9BYM8 whole entry): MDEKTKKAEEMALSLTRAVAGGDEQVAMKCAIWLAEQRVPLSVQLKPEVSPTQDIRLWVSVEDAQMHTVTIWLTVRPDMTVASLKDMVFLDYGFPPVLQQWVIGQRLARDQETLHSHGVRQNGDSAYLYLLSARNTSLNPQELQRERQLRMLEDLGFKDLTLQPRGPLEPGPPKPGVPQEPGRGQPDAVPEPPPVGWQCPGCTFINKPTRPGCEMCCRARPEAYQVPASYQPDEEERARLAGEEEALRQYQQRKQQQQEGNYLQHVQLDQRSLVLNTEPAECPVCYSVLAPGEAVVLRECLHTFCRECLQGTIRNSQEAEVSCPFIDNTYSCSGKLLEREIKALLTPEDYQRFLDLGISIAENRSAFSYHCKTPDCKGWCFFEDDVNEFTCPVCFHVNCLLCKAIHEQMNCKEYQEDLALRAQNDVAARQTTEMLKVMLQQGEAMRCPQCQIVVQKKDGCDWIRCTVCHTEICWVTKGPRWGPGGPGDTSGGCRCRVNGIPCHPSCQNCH
# T4 sequence (Q96EP0 whole entry): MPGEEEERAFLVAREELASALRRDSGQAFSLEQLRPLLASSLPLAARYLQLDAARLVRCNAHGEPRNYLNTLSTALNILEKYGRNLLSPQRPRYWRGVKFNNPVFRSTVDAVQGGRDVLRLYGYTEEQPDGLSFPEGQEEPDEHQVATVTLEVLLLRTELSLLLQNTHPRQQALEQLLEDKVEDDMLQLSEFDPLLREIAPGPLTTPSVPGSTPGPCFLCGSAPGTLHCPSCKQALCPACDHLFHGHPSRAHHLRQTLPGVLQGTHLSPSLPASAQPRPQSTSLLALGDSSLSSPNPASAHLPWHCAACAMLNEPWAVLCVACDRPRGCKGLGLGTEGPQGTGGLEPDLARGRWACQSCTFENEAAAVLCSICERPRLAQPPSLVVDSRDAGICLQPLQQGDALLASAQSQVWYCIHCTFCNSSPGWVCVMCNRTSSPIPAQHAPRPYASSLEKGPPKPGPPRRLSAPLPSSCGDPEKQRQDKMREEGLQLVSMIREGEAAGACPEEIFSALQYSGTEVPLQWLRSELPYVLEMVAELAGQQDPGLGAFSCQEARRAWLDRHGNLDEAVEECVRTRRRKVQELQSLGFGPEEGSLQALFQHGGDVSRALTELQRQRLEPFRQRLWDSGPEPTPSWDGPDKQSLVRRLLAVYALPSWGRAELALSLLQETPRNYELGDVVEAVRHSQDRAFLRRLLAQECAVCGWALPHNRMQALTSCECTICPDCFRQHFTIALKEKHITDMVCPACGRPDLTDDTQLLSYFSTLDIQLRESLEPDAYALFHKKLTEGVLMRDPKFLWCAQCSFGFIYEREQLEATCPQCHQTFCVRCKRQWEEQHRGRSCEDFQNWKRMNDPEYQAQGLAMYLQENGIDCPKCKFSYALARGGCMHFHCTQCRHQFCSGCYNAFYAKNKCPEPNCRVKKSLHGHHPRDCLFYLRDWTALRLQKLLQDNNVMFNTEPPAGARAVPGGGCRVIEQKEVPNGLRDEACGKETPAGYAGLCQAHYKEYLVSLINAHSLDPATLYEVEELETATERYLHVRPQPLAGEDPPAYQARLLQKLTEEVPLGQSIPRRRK
compound,measurement,setting,value
COCC(=O)N[C@@H](Cc1ccc(-c2cc(Cl)cc(Cl)c2)cc1)[C@H](O)[C@@H](O)C(=O)O,IC50,[1],1.7 µM
COC(=O)[C@H](CCSC)NC(=O)c1ccc(NC[C@@H](N)CS)cc1-c1ccccc1,IC50,[2],0.0005 µM
NS(=O)(=O)OC[C@@H]1C[C@@H](n2ccc3c(N[C@H]4CCc5ccccc54)ncnc32)C[C@@H]1O [PEVONEDISTAT],IC50,[3],> 1 µM
same,IC50,[4],> 1 µM
same,IC50,[5],> 1 µM
same,IC50,[6],> 1 µM
CCNC1=N[C@@H]2[C@@H](O)[C@H](O)[C@@H](CO)O[C@@H]2S1,EC50,[7],0.03 µM
CSCC[C@@H](NC(=O)c1ccc(CNCc2c[nH]cn2)cc1-c1ccccc1C)C(=O)O,IC50,[2],0.0014 µM
Cn1cncc1[C@@](N)(c1ccc(Cl)cc1)c1ccc2c(c1)c(-c1cccc(Cl)c1)cc(=O)n2C [TIPIFARNIB],IC50,[8],> 1 µM
Nc1nnc(Sc2ncc([N+](=O)[O-])s2)s1,IC50,[9],0.7 µM
O=C1CCc2c(Oc3ccc4c(c3)[C@@H]3[C@H](O4)[C@H]3c3nc4ccc(C(F)(F)F)cc4[nH]3)ccnc2N1 [LIFIRAFENIB],IC50,[10],0.023 µM
C=C(C)[C@H](CC=C(C)C)C[C@]12C[C@H](CC=C(C)C)C(C)(C)[C@](CC=C(C)C)(C(=O)C(C(=O)c3ccc(O)c(O)c3)=C1O)C2=O,IC50,[11],7 µM
CN1C(=O)[C@]23CC4=CC=C[C@H](O)[C@H]4N2C(=O)[C@@]1(CO)SS3 [GLIOTOXIN],IC50,[12],0.51 µM
